Results on four compounds are retold here after ChEMBL document CHEMBL4699625, “Callyspongiolide Is a Potent Inhibitor of the Vacuolar ATPase” (J Nat Prod, 2020).

Calls of active or inactive are those of the source. The rule behind the calls is not given here. Where only a bound is given, the exact number is not on record here.

The test system of assay [1] is Jurkat. In words: Cytotoxicity against human Jurkat cells assessed as reduction in cell viability. The assay is classed as functional, cell-based.
Assay [2] deals with Saccharomyces cerevisiae. In words: Antifungal activity against Saccharomyces cerevisiae W303 pdr5 deletion mutant assessed as reduction in microbial growth at 0.5 uM after 2 to 3 days. The assay is classed as functional, organism-based. Particulars: time day 2-3.
Assay [3] relates to Saccharomyces cerevisiae. Description: Growth inhibition of Saccharomyces cerevisiae W303 at 0.5 uM after 2 to 3 days in glycerol condition relative to control. The assay is classed as functional. Particulars: time day 2-3, read-out: GI.
Assay [4] deals with Saccharomyces cerevisiae. In words: Growth inhibition of Saccharomyces cerevisiae W303 pdr5 deletion mutant at 0.5 uM after 2 to 3 days in glycerol condition relative to control. Particulars: time day 2-3, read-out: GI. Type of assay: functional.
Assay [5] concerns Saccharomyces cerevisiae. Description: Growth inhibition of Saccharomyces cerevisiae W303 pdr5 deletion mutant at 0.5 uM after 2 to 3 days in ammonium iron(II) sulfate condition. Particulars: time day 2-3. The assay is classed as functional, organism-based.
Assay [6] deals with Saccharomyces cerevisiae. In words: Growth inhibition of Saccharomyces cerevisiae W303 at 0.5 uM after 2 to 3 days in ammonium iron(II) sulfate condition. The assay is classed as functional, organism-based. Particulars: time day 2-3.
Assay [7] concerns Saccharomyces cerevisiae W303. Description: Inhibition of V-ATpase in Saccharomyces cerevisiae W303 assessed as quinacrine accumulation in the cytosol at 0.5 uM after 4 hrs by fluorescence microscopic method. Type of assay: subcellular.
The test system of assay [8] is Saccharomyces cerevisiae W303. Description: Inhibition of V-ATpase in Saccharomyces cerevisiae W303 pdr5 deletion mutant assessed as quinacrine accumulation in the cytosol at 0.5 uM after 4 hrs by fluorescence microscopic method. The assay is classed as subcellular.
For assay [9], the system named is Saccharomyces cerevisiae. Description: Inhibition of V-ATpase in Saccharomyces cerevisiae BY4742 vacuolar membranes at 100 nM after 10 mins by spectrophotometric based coupled enzyme assay relative to control. The assay is classed as cell membranes. Particulars: Membrane.
Assay [10] can be described thus: Inhibition of V-ATpase in Saccharomyces cerevisiae […] vacuolar membranes after 10 mins by spectrophotometric based coupled enzyme assay. Type of assay: cell membranes, Saccharomyces cerevisiae W303, Membrane.
In assay [11] the test system is Jurkat. In words: Cytotoxicity against human Jurkat cells assessed as reduction in cell viability in presence of pan-caspase inhibitor Z-VAD-FMK relative to control. The assay is classed as functional.
The subject of assay [12] is Saccharomyces cerevisiae. In words: Antifungal activity against Saccharomyces cerevisiae W303 assessed as reduction in microbial growth at 10 uM after 2 to 3 days. Particulars: time day 2-3. The assay is classed as functional, organism-based.
The subject of assay [13] is Saccharomyces cerevisiae. In words: Growth inhibition of Saccharomyces cerevisiae W303 at 10 uM after 2 to 3 days in glycerol condition relative to control. Particulars: time day 2-3, read-out: GI. The assay is classed as functional.
The subject of assay [14] is Saccharomyces cerevisiae. Description: Growth inhibition of Saccharomyces cerevisiae W303 pdr5 deletion mutant at 10 uM after 2 to 3 days in glycerol condition relative to control. The assay is classed as functional. Particulars: time day 2-3, read-out: GI.
In assay [15] the test system is Saccharomyces cerevisiae. Description: Growth inhibition of Saccharomyces cerevisiae W303 pdr5 deletion mutant at 10 uM after 2 to 3 days in ammonium iron(II) sulfate condition. The assay is classed as functional, organism-based. Particulars: time day 2-3.
Assay [16] concerns Saccharomyces cerevisiae. In words: Growth inhibition of Saccharomyces cerevisiae W303 at 10 uM after 2 to 3 days in ammonium iron(II) sulfate condition. Particulars: time day 2-3. The assay is classed as functional, organism-based.
The subject of assay [17] is Saccharomyces cerevisiae. Description: Growth inhibition of Saccharomyces cerevisiae W303 pdr5 deletion mutant at 0.5 to 10 uM after 2 to 3 days at pH 5 condition. Type of assay: functional, organism-based. Particulars: dose microM 0.5-10, time day 2-3.
Assay [18] relates to Saccharomyces cerevisiae. Description: Growth inhibition of Saccharomyces cerevisiae W303 at 0.5 to 10 uM after 2 to 3 days at pH 5 condition. Type of assay: functional, organism-based. Particulars: dose microM 0.5-10, time day 2-3.
The subject of assay [19] is Saccharomyces cerevisiae. In words: Growth inhibition of Saccharomyces cerevisiae W303 pdr5 deletion mutant at 0.5 to 10 uM after 2 to 3 days at pH 7.5 condition. The assay is classed as functional, organism-based. Particulars: dose microM 0.5-10, time day 2-3.
The test system of assay [20] is Saccharomyces cerevisiae. Description: Growth inhibition of Saccharomyces cerevisiae W303 at 0.5 to 10 uM after 2 to 3 days at pH 7.5 condition. The assay is classed as functional, organism-based. Particulars: dose microM 0.5-10, time day 2-3.
In assay [21] the test system is Saccharomyces cerevisiae W303. In words: Inhibition of V-ATpase in Saccharomyces cerevisiae W303 assessed as quinacrine accumulation in the cytosol at 10 uM after 4 hrs by fluorescence microscopic method. The assay is classed as subcellular.
Assay [22] concerns Saccharomyces cerevisiae W303. In words: Inhibition of V-ATpase in Saccharomyces cerevisiae W303 pdr5 deletion mutant assessed as quinacrine accumulation in the cytosol at 10 uM after 4 hrs by fluorescence microscopic method. Type of assay: subcellular.
The subject of assay [23] is Saccharomyces cerevisiae W303. In words: Inhibition of V-ATpase in Saccharomyces cerevisiae […] vacuolar membranes at 80 nM after 10 mins by spectrophotometric based coupled enzyme assay. Particulars: Membrane. Type of assay: cell membranes.

As to `C[C@@H]1C/C=C/C(=O)O[C@H](/C=C/C#C/C=C/C(C)(C)[C@@H](O)c2cccc(O)c2Br)[C@@H](C)/C=C/[C@H](C)C[C@H](OC(N)=O)C1`, the IC50 in the assay with Jurkat [1] worked out at 115 nM.
In the case of `C/C=C/[C@H]1O[C@@](O)([C@@H](C)[C@H](O)[C@H](C)[C@H]2OC(=O)/C(OC)=C/C(C)=C/[C@@H](C)[C@@H](O)[C@@H](CC)[C@@H](O)[C@H](C)C/C(C)=C/C=C/[C@@H]2OC)C[C@@H](O[C@H]2C[C@@H](O)[C@H](OC(N)=O)[C@@H](C)O2)[C@@H]1C` [CONCANAMYCIN A], the result with Saccharomyces cerevisiae [2] was Active. Moreover, the inhibition of growth at 0.5 µM in the assay with Saccharomyces cerevisiae [3] and in the assay on Saccharomyces cerevisiae [4] was 100% in each case. The “growth inhibition (GI)” value in the assay with Saccharomyces cerevisiae [5] and in the assay on Saccharomyces cerevisiae [6] was “inactive” throughout. Further, the inhibition entry in assay [7] and in [8] was “Active” in each case. Further, the inhibition in the assay with Saccharomyces cerevisiae [9] was 75%. Also, the IC50 in [10] is 3 nM.
Take `CO/C1=C\C(C)=C\[C@@H](C)[C@@H](O)[C@@H](C)C/C(C)=C/C=C/[C@H](OC)[C@@H]([C@@H](C)[C@@H](O)[C@H](C)[C@@]2(O)C[C@@H](O)[C@H](C)[C@@H](C(C)C)O2)OC1=O` [BAFILOMYCIN A1]: in [10], the IC50 worked out at 4 nM.
`C[C@@H]1C/C=C\C(=O)O[C@H](/C=C/C#C/C=C/C(C)(C)[C@@H](O)c2cccc(O)c2Br)[C@@H](C)/C=C/[C@H](C)C[C@H](OC(N)=O)C1`: the values for the IC50 (in the assay with Jurkat [1]; in [10]) were 43 nM and 9.91 nM, respectively. Besides, the Activity in the assay with Jurkat [11] is listed as less than 3%. Further, the result with Saccharomyces cerevisiae [12] and in the assay on Saccharomyces cerevisiae [2] was Active. Further, the inhibition of growth at 10 µM in the assay with Saccharomyces cerevisiae [13] and with Saccharomyces cerevisiae [14] was 100% in each case. Also, the “growth inhibition (GI)” value in the assay on Saccharomyces cerevisiae [15] and in the assay on Saccharomyces cerevisiae [16] was “inactive” in each case. The “growth inhibition (GI)” value in the assay on Saccharomyces cerevisiae [17], in the assay with Saccharomyces cerevisiae [18], in the assay with Saccharomyces cerevisiae [19] and with Saccharomyces cerevisiae [20] was “Active” each time. Further, the inhibition entry in [21], in assay [22] and in [23] was “Active” in each case.
